Source: patent US10723727B2, “Tubulysin analogs and methods for their preparation” (priority 2016, dated 2020)
Where two headings read alike, the source gives them in different places.

Experiments:
[1] = system: N87 (gastric cancer) cells; assay: In vitro cell assay (MTS cell viability), N87; type: cell-based; settings: free compounds, 96 hours after treatment
Protocol: (§1) In Vitro Cell Assay Procedure
(§2) Target expressing (BT474 (breast cancer), N87 (gastric cancer), HCC1954 (breast cancer), MDA-MB-361-DYT2 (breast cancer)) or non-expressing (HT-29) cells were seeded in 96-well cell culture plates for 24 hours before treatment. Cells were treated with 3-fold serially diluted antibody-drug conjugates or free compounds (i. e. no antibody conjugated to the drug) in duplicate at 10 concentrations. Cell viability was determined by CellTiter 96® AQueous One Solution Cell Proliferation MTS Assay (Promega, Madison Wis.) 96 hours after treatment. Relative cell viability was determined as percentage of untreated control. IC50 values were calculated using a four parameter logistic model #203 with XLfit v4. 2 (IDBS, Guildford, Surry, UK).

[2] = system: MDA-MB-361-DYT2 (breast cancer) cells; assay: In vitro cell assay (MTS cell viability), MDA-MB-361-DYT2; type: cell-based; settings: free compounds, 96 hours after treatment
Protocol: as §1, §2

[3] = system: HT-29 cells; assay: In vitro cell assay (MTS cell viability), HT-29 (target non-expressing); type: cell-based; settings: free compounds, 96 hours after treatment, read-out: HT29 IC50
Protocol: as §1, §2

[4] = molecular target: T1, tubulin/RB3-stathmin-like-domain (RB3-SLD-tdm) complex (Sus scrofa, UniProt P02550+P02554); assay: Tubulin Peptide-Binding Site Competition Assay (fluorescence polarization); design: species or system Porcine
T1 construct: purchased Cytoskeleton, Inc. T240; host or cells: RB3-SLD was made in house in E. coli
Protocol: Tubulin Peptide-Binding Site Competition Assay
Tubulin binding potency was measured for payloads or cysteine-capped linker-payloads using a fluorescence polarization (FP) competition assay. The binding of a BODIPY-labeled vinca peptide probe (# B31) to a tubulin/RB3-stathmin-like-domain (RB3-SLD-tdm) complex generates a high FP signal, which can be decreased when mixing with test compounds that compete with the FP probe. The order of addition for the reagents in the FP assay was designed to pre-mix the FP probe with various concentrations of the test compound before mixing them with the tubulin/RB3-SLD-dm complex. The final assay concentrations of the probe, tubulin and RB3-SLD-dm were 3, 6, and 100 nM, respectively. IC50 for each test compound is obtained by fitting the dose-dependent FP signal change using GraphPad Prism version 5 software (La Jolla, Calif.) while Ki is converted from the IC50 using the equations described previously (Nikolovska-Coleska et al., 2004). The FP signals were measured on an Infinite M1000 (Tecan, San Jose, Calif.) using ProxiPlate-384 F Plus, Black (Perkin-Elmer, Waltham, Mass., Cat #6008260) with 15 μL of solution per well. Sample dilution and mixing were done using a Beckman Biomek XF (Brea, Calif.). Porcine tubulin was purchased from Cytoskeleton, Inc. (Denver, Colo., Cat #T240) and RB3-SLD was expressed in E. coli. and purified on Q and then Superdex75 columns. The FP assay test for each compound was run in duplicates by mixing 6 μL of solution 1 containing 2.5× test compound (2.5× serial dilution from 7.8 μM maximum concentration, 11 total concentrations) and 7.5 nM of the FP probe in 80 mM PIPES, pH 7.0, 0.02% Tween 20, 2 mM MgCl2, 1 mM EGTA and 3% DMSO with 9 μL of solution 2 containing […] porcine tubulin and 167 nM of RB3-SLD-dm peptide ([…]-[…]) on ProxiPlate-384 micro-plates.

[5] = FP competition with BODIPY-labeled vinca peptide probe, read after five hours at 22° C., read-out: Tubulin Peptide-Binding Site Competition Assay IC50

## CC[C@H](C)[C@H](NC(=O)[C@@]1(C)CCCN1C)C(=O)N(C)[C@H](C[C@H](O)c1nc(C(=O)N[C@@H](Cc2ccc(N)cc2)C[C@H](C)C(=O)O)cs1)C(C)C [#B33, 1,2-dimethyl-D-prolyl-N-{(1S,3R)-1-(4-{[(2R,4S)-1-(4-aminophenyl)-4-carboxypentan-2-yl]carbamoyl}-1,3-thiazol-2-yl)-1-hydroxy-4-methylpentan-3-yl]-N-methyl-L-isoleucinamide]
[1]; 96 h
  IC50: > 1000 nM
[2]; 96 h
  IC50: > 1000 nM
[3]; Homo sapiens, HT-29, 96 h
  IC50: > 1000 nM

## CC[C@H](C)[C@H](NC(=O)[C@@]1(C)CCCN1C)C(=O)N(C)[C@H](C[C@@H](NC(C)=O)c1nc(C(=O)N[C@@H](Cc2ccc(N)cc2)C[C@H](C)C(=O)O)cs1)C(C)C [#B28, 1,2-dimethyl-D-prolyl-N-[(1R,3R)-1-(acetylamino)-1-(4-{[(2R,4S)-1-(4-aminophenyl)-4-carboxypentan-2-yl]carbamoyl}-1,3-thiazol-2-yl)-4-methylpentan-3-yl]-N-methyl-L-isoleucinamide]
[1]; 96 h
  IC50: > 100 nM
[2]; 96 h
  IC50: 81.5 nM
[3]; Homo sapiens, HT-29, 96 h
  IC50: 74.9 nM

## CCOC(=O)[C@@H](C)C[C@H](Cc1ccccc1)NC(=O)c1csc([C@@H](C[C@H](C(C)C)N(C)C(=O)[C@@H](NC(=O)[C@@]2(C)CCCN2C)[C@@H](C)CC)NC(C)=O)n1 [#B18, 1,2-dimethyl-D-prolyl-N-[(1R,3R)-1-(acetylamino)-1-(4-{[(2R,4S)-5-ethoxy-4-methyl-5-oxo-1-phenylpentan-2-yl]carbamoyl}-1,3-thiazol-2-yl)-4-methylpentan-3-yl]-N-methyl-L-isoleucinamide]
[1]; 96 h
  IC50: > 100 nM
[2]; 96 h
  IC50: > 100 nM
[3]; Homo sapiens, HT-29, 96 h
  IC50: > 100 nM

## CC[C@H](C)[C@H](NC(=O)[C@@]1(C)CCCN1C)C(=O)N(C)[C@H](C[C@@H](NC(C)=O)c1nc(C(=O)N[C@@H](Cc2ccccc2)C[C@H](C)C(=O)O)cs1)C(C)C [#B19, 1,2-dimethyl-D-prolyl-N-[(1R,3R)-1-(acetylamino)-1-(4-{[(2R,4S)-4-carboxy-1-phenylpentan-2-yl]carbamoyl}-1,3-thiazol-2-yl)-4-methylpentan-3-yl]-N-methyl-L-isoleucinamide]
[1]; 96 h
  IC50: 37.7 nM
[2]; 96 h
  IC50: 17.4 nM
[3]; Homo sapiens, HT-29, 96 h
  IC50: 14.6 nM

## CCNC(=O)N[C@H](C[C@H](C(C)C)N(C)C(=O)[C@@H](NC(=O)[C@@]1(C)CCCN1C)[C@@H](C)CC)c1nc(C(=O)N[C@@H](Cc2ccc(N)cc2)C[C@H](C)C(=O)O)cs1 [#B29, 1,2-dimethyl-D-prolyl-N-{(1R,3R)-1-(4-{[(2R,4S)-1-(4-aminophenyl)-4-carboxypentan-2-yl]carbamoyl}-1,3-thiazol-2-yl)-1-[(ethylcarbamoyl)amino]-4-methylpentan-3-yl}-N-methyl-L-isoleucinamide]
[1]; 96 h
  IC50: 28.6 nM
[2]; 96 h
  IC50: 24.9 nM
[3]; Homo sapiens, HT-29, 96 h
  IC50: 24.5 nM

## CCNC(=O)O[C@H](C[C@H](C(C)C)N(C)C(=O)[C@@H](NC(=O)C1(C)CCCCN1C)[C@@H](C)CC)c1nc(C(=O)N[C@@H](Cc2ccc(N)cc2)C[C@H](C)C(=O)O)cs1 (stereo in doubt) [#B24, (2S,4R)-5-(4-aminophenyl)-4-{[(2-{(1R,3R)-3-[(N-{[(2R)-1,2-dimethylpiperidin-2-yl]carbonyl}-L-isoleucyl)(methyl)amino]-1-[(ethylcarbamoyl)oxy]-4-methylpentyl}-1,3-thiazol-4-yl)carbonyl]amino}-2-methylpentanoic acid]
[1]
  IC50: 1.22 nM
[2]
  IC50: 1.24 nM
[3]
  IC50: 1.14 nM

## CC[C@H](C)[C@H](NC(=O)[C@@]1(C)CCCN1C)C(=O)N(C)[C@H](C[C@@H](NC(C)=O)c1nc(C(=O)N[C@@H](Cc2ccccc2)C[C@H](C)C(=O)OC)cs1)C(C)C [#B20, 1,2-dimethyl-D-prolyl-N-[(1R,3R)-1-(acetylamino)-1-(4-{[(2R,4S)-5-methoxy-4-methyl-5-oxo-1-phenylpentan-2-yl]carbamoyl}-1,3-thiazol-2-yl)-4-methylpentan-3-yl]-N-methyl-L-isoleucinamide]
[1]; 96 h
  IC50: 6.11 nM
[2]; 96 h
  IC50: 2.58 nM
[3]; Homo sapiens, HT-29, 96 h
  IC50: 3.37 nM

## CC[C@H](C)[C@H](NC(=O)[C@@]1(C)CCCN1C)C(=O)N(C)[C@H](C[C@@H](OC(C)=O)c1nc(C(=O)N[C@@H](Cc2ccccc2)C[C@H](C)C(=O)O)cs1)C(C)C [#B8, 1,2-dimethyl-D-prolyl-N-[(1R,3R)-1-(acetyloxy)-1-(4-{[(2R,4S)-4-carboxy-1-phenylpentan-2-yl]carbamoyl}-1,3-thiazol-2-yl)-4-methylpentan-3-yl]-N-methyl-L-isoleucinamide]
[4]; [5]
  IC50: 1.8 nM
[1]; 96 h
  IC50: 0.104 nM
[2]; 96 h
  IC50: 0.063 nM

## CC[C@H](C)[C@H](NC(=O)[C@H]1CCCCN1C)C(=O)N(C)[C@H](C[C@@H](OC(C)=O)c1nc(C(=O)N[C@@H](Cc2ccccc2)CN2CCOCC2)cs1)C(C)C [#B40, (1R,3R)-4-methyl-3-[methyl(N-{[(2R)-1-methylpiperidin-2-yl]carbonyl}-L-isoleucyl)amino]-1-[4-({(2S)-1-(morpholin-4-yl)-3-phenylpropan-2-yl]carbamoyl}-1,3-thiazol-2-yl)pentyl acetate]
[4]; [5]
  IC50: 2.4 nM
[1]; 96 h
  IC50: 0.485 nM
[2]; 96 h
  IC50: 0.308 nM

## CC[C@H](C)[C@H](NC(=O)[C@H]1CCCCN1C)C(=O)N(C)[C@H](C[C@@H](OC(C)=O)c1nc(C(=O)N[C@H](CNS(C)(=O)=O)Cc2ccccc2)cs1)C(C)C [#B36, (1R,3R)-4-methyl-3-[methyl(N-{[(2R)-1-methylpiperidin-2-yl]carbonyl}-L-isoleucyl)amino]-1-[4-({(2S)-1-[(methylsulfonyl)amino]-3-phenylpropan-2-yl}carbamoyl)-1,3-thiazol-2-yl]pentyl acetate]
[4]; [5]
  IC50: 1.7 nM
[1]; 96 h
  IC50: 0.459 nM
[2]; 96 h
  IC50: 0.255 nM

## CC[C@H](C)[C@H](NC(=O)[C@@]1(C)CCCN1)C(=O)N(C)[C@H](C[C@@H](OC(C)=O)c1nc(C(=O)N[C@@H](Cc2ccccc2)C[C@H](C)C(=O)OC)cs1)C(C)C [#B6, 2-methyl-D-prolyl-N-[(1R,3R)-1-(acetyloxy)-1-(4-{[(2R,4S)-5-methoxy-4-methyl-5-oxo-1-phenylpentan-2-yl]carbamoyl}-1,3-thiazol-2-yl)-4-methylpentan-3-yl]-N-methyl-L-isoleucinamide]
[4]; [5]
  IC50: 119 nM
[1]; 96 h
  IC50: 29.3 nM
[2]; 96 h
  IC50: 18.6 nM

## CC[C@H](C)[C@H](NC(=O)[C@H]1CCCCN1C)C(=O)N(C)[C@H](C[C@@H](OC(C)=O)c1nc(C(=O)NCC2OCCc3ccccc32)cs1)C(C)C (stereo partly drawn) [#B38, (1R,3R)-1-{4-[(3,4-dihydro-1H-isochromen-1-ylmethyl)carbamoyl]-1,3-thiazol-2-yl}-4-methyl-3-[methyl(N-{[(2R)-1-methylpiperidin-2-yl]carbonyl}-L-isoleucyl)amino]pentyl acetate]
[4]; [5]
  IC50: 4.8 nM
[1]; 96 h
  IC50: 3.06 nM
[2]; 96 h
  IC50: 0.925 nM

## CC[C@H](C)[C@H](NC(=O)[C@]1(C)CCCN1C)C(=O)N(C)[C@H](C[C@@H](OC(C)=O)c1nc(C(=O)N[C@@H](Cc2ccccc2)C[C@H](C)C(=O)OC)cs1)C(C)C [#B2, 1,2-dimethyl-L-prolyl-N-[(1R,3R)-1-(acetyloxy)-1-(4-{[(2R,4S)-5-methoxy-4-methyl-5-oxo-1-phenylpentan-2-yl]carbamoyl}-1,3-thiazol-2-yl)-4-methylpentan-3-yl]-N-methyl-L-isoleucinamide]
[4]; [5]
  IC50: 92.2 nM
[1]; 96 h
  IC50: 11.8 nM
[2]; 96 h
  IC50: 5.54 nM

## CC[C@H](C)[C@H](NC(=O)[C@H]1CCCCN1C)C(=O)N(C)[C@H](C[C@@H](OC(C)=O)c1nc(C(=O)N[C@@H](Cc2ccccc2)CC(C)P(=O)(O)O)cs1)C(C)C (stereo partly drawn) [#B3, N-[(1R,3R)-1-(acetyloxy)-4-methyl-1-(4-{[(2S)-1-phenyl-4-phosphonopentan-2-yl]carbamoyl}-1,3-thiazol-2-yl)pentan-3-yl]-N-methyl-N˜2˜-{[(2R)-1-methylpiperidin-2-yl]carbonyl}-L-isoleucinamide]
[4]
  IC50: 4.4 nM
[1]; 96 h
  IC50: 14.8 nM
[2]; 96 h
  IC50: 9.4 nM
